{"source": "patent US6080790A", "about": "“Tri-substituted phenyl derivatives and processes for their preparations” (priority 1992, dated 2000)", "key": {"[1]": {"test_system": "PDE IV, HL60 cells", "experiment": "Isolated enzyme, inhibition of PDE IV from HL60 cells", "format": "biochemical", "details": "0.1 μM [3H]-cAMP, pH 7.5, 30° C.; \"Ki PDEIV HL60 at 1 μM\"; read-out: approximate Ki value (PDE IV HL60)", "description": "1. Isolated Enzyme The potency and selectivity of the compounds of the invention was determined using a battery of distinct PDE isoenzymes as follows: iv. PDE IV, HL60 cells. The enzymes were purified to kinetic homogeneity using standard chromatographic techniques. Phosphodiesterase activity was assayed as follows. The reaction was conducted in 150 μl of standard mixture containing (final concentrations): 50 mM TES-NaOH buffer (pH 7.5), 10 mM MgCl2, 0.1 μM [^3 H]-cAMP and vehicle or various concentrations of the test compounds. The reaction was initiated by addition of enzyme and conducted at 30° C. for between 5 to 30 mins. […] An aliquot of the sample was then applied to a column of neutral alumina and the […] eluted with 10 ml 0.1 TES-NaOH buffer (pH8). […] Recovery of [3H]-5'AMP was determined using the [^14 C]-5'AMP and all assays were conducted in the linear range of the reaction."}, "[2]": {"test_system": "right atrial muscle", "details": "reference substances, general statement; cited from earlier work"}, "[3]": {"test_system": "papillary muscle", "details": "reference substances, general statement; cited from earlier work"}, "[4]": {"details": "used in asthma as a bronchodilator; cited from earlier work"}}, "note": "Structures can show the parent of a compound that is named as a salt.", "data": [{"compound": "COc1ccc(-c2cncc3ccccc23)cc1OC1CCCC1", "note": "[Example 2, 4-(3-Cyclopentyloxy-4-methoxyphenyl)isoquinoline]", "values": [{"measurement": "Ki", "setting": "[1]", "result": "~180", "unit": "nM"}]}, {"compound": "COc1ccc(-c2cccnc2)cc1OC1CCCC1", "note": "[Example 4, 3-(3-Cyclopentyloxy-4-methoxyphenyl)pyridine hydrochloride]", "values": [{"measurement": "Ki", "setting": "[1]", "result": "~270", "unit": "nM"}]}, {"compound": "COc1ccc(-c2cccc([N+](=O)[O-])c2)cc1OC1CCCC1", "note": "[Example 7, 2-Cyclopentyloxy-4-(3-nitrophenyl)anisole]", "values": [{"measurement": "Ki", "setting": "[1]", "result": "~250", "unit": "nM"}]}, {"compound": "Cc1[nH]c(=O)c(C#N)cc1-c1ccncc1", "note": "[milrinone]", "values": [{"measurement": "direct chronotropic effect (reference PDE inhibitors)", "setting": "[2]", "result": "positive chronotropic and inotropic effects"}, {"measurement": "direct inotropic effect (reference PDE inhibitors)", "setting": "[3]", "result": "positive chronotropic and inotropic effects"}]}, {"compound": "COc1ccc(C2CNC(=O)C2)cc1OC1CCCC1", "note": "(centres unmarked) [rolipram]", "values": [{"measurement": "direct chronotropic effect (reference PDE inhibitors)", "setting": "[2]", "result": "do not have any direct effects"}, {"measurement": "direct inotropic effect (reference PDE inhibitors)", "setting": "[3]", "result": "do not have any direct effects"}]}, {"compound": "Cn1c(=O)c2[nH]cnc2n(C)c1=O", "note": "[theophylline]", "values": [{"measurement": "cardiovascular changes", "setting": "[4]", "result": "significant cardiovascular changes such as tachycardia"}]}]}
